Data published in ChEMBL document CHEMBL1201862, “PubChem BioAssay data set” (2004).
Active and inactive are the calls of the source. Cut-off read from the data, not from the text of the source, for most assays here: actives have a measured EC50 and inactives only a lower limit.

How the values were obtained:
[1] = Luminescence Cell-Based Dose Confirmation HTS to Identify Activators of 5'UTR Stem-Loop Driven Alpha-Synuclein mRNA Translation in H4 Neuroglioblastoma Cells. [Related pubchem assays: 1829 (Project Summary), 1814 (Primary HTS)]; format: functional
[2] = Luminescence Cell-Based Dose Response HTS to Identify Activators of Luciferase Translation or Activity in H4 […] Cells. [Related pubchem assays: 1829 (Project Summary), 1814 (Primary HTS)]; format: functional
H4 = experiment: Luminescence Cell-Based Dose Response HTS to Identify Activators of 5'UTR Stem-Loop Driven Prion Protein mRNA Translation in H4 Neuroglioblastoma Cells. [Related pubchem assays: 1829 (Project Summary), 1814 (Primary HTS)]; format: functional; conditions: Homo sapiens
H9c2 = experiment: cells; format: functional, cell-based; conditions: Rattus norvegicus, H9c2, Myocardium;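 note: confirmatory concentration-response retest of ultra-high-throughput screening hits for modulation of myocardial damage; cell death induced by hydrogen peroxide oxidative stress; compound pretreatment for 60 min then peroxide exposure for 2 h; potency is for protecting the cells against peroxide damage rather than for killing them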
[3] = molecular target: T1, Rac GTPase-activating protein 1 (Homo sapiens, UniProt Q9H0H5); experiment: MgcRacGAP GTPase-activating activity inhibitors, confirmation, biochemical, ADP Hunter fluorescence, primary and confirmatory (AID 624330); format: functional
T1 sequence (Q9H0H5 whole entry): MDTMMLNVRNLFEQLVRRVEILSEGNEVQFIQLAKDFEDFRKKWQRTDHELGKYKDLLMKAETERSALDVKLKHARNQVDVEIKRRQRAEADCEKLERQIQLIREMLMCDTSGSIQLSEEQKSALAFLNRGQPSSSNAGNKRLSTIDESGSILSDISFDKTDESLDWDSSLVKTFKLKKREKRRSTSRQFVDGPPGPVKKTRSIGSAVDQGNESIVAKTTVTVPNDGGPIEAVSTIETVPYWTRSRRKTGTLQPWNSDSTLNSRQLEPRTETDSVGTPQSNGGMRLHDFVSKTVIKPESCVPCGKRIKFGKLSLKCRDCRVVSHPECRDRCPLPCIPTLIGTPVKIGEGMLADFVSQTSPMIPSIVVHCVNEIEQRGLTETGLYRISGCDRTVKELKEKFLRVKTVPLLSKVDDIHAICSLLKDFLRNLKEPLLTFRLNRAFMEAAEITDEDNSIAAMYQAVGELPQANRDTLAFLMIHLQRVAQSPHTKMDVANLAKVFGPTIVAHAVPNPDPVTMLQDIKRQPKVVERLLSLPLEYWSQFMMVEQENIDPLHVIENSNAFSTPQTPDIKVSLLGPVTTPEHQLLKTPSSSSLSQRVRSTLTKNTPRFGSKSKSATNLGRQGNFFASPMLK

[4] = Luminescence Cell-Based Dose Response HTS to Identify Inhibitors of 5'UTR Stem-Loop Driven Prion Protein mRNA Translation in H4 Neuroglioblastoma Cells. [Related pubchem assays: 1827 (Project Summary), 1813 (Primary HTS)]; format: functional
[5] = inhibitors of SNCA 5'UTR-driven reporter translation, confirmation, H4 neuroglioma cells, luminescence (AID 1988); format: functional, cell-based
[6] = inhibitors of firefly luciferase expression or activity, dose response, H4 neuroglioma cells, luminescence (AID 1990); format: functional, cell-based
[7] = inhibitors of intracellular T. cruzi replication, confirmation, NIH3T3 host cells, beta-gal luminescence (AID 2044); format: functional, cell-based;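 note: intracellular parasites grown in NIH/3T3 mouse fibroblasts as host cells; luminescent beta-galactosidase reporter signal from transgenic T. cruzi replicating inside host cells; inhibitors lower the luminescence signal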
[8] = cytotoxicity toward NIH3T3 fibroblasts, dose response, counter-screen, cell-based, ATP luminescence, mouse fibroblasts (AID 2010); format: functional;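 note: cells exposed to compound for about 90 hours before reading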
[9] = molecular target: T2, Replicative DNA helicase DnaB (Mycobacterium tuberculosis, UniProt P9WMR3); experiment: DnaB intein splicing inhibitors, dose response, biochemical, cell-free fluorescence (AID 449749); format: functional
T2 sequence (P9WMR3 whole entry): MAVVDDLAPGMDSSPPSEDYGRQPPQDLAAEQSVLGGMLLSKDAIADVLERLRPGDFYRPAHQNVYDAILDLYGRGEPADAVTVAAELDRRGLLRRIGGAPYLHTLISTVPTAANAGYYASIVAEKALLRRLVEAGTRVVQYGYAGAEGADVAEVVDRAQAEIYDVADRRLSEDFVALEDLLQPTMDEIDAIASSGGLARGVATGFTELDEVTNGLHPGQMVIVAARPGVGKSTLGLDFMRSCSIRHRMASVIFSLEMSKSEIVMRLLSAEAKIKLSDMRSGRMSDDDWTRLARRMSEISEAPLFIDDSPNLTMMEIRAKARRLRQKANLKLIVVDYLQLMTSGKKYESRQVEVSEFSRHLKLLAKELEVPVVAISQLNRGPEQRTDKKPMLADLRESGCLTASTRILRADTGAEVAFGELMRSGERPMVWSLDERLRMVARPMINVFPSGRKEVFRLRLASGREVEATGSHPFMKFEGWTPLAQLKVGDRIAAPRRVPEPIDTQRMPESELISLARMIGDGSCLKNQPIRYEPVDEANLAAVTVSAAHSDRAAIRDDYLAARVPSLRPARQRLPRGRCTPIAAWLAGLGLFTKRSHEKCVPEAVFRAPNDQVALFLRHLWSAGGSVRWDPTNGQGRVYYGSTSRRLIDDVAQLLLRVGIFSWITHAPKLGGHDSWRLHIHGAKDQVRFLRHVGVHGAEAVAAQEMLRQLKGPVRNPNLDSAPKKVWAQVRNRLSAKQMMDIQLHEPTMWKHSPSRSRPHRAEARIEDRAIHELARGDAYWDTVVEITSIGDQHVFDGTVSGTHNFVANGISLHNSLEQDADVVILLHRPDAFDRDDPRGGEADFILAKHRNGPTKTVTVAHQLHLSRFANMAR

Protein RecA = molecular target: T3, Protein RecA (Mycobacterium tuberculosis, UniProt P9WHJ3); experiment: Fluorescence Cell-Free Homogeneous Dose Retest to Identify Inhibitors of RecA-Intein Splicing Activity. [Related pubchem assays (depositor defined):AID2097, AID2223, AID489010, AID492950]; format: functional
T3 sequence (P9WHJ3 whole entry): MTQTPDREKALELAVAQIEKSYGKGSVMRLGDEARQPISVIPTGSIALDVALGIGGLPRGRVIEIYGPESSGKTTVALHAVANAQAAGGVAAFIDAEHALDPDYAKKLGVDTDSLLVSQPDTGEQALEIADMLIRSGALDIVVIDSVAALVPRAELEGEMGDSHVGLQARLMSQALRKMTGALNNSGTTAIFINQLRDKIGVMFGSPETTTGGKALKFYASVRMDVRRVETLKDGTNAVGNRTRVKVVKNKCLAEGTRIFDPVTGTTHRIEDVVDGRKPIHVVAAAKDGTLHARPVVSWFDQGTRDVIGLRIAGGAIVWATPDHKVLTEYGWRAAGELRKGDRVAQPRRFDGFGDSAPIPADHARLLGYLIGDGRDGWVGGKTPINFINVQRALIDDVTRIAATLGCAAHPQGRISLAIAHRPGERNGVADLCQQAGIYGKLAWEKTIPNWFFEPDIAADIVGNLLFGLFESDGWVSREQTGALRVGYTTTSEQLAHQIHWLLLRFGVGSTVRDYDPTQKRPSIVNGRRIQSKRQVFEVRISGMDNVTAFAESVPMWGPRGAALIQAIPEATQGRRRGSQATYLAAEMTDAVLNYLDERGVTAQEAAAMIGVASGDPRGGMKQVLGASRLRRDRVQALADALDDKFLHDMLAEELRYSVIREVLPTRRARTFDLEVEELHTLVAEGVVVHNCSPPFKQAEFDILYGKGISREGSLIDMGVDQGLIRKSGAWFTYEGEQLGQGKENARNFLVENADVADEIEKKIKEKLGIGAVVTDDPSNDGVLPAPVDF

[10] = molecular target: T4, Corticotropin-releasing factor receptor 2/Corticotropin-releasing factor-binding protein (Homo sapiens, UniProt P24387+Q13324); experiment: Dose Response confirmation of uHTS hits for small molecule antagonists of the CRF-binding protein and CRF-R2 receptor complex.; format: functional; conditions: read-out: IC50_Mean
T4 sequence (Q13324 whole entry): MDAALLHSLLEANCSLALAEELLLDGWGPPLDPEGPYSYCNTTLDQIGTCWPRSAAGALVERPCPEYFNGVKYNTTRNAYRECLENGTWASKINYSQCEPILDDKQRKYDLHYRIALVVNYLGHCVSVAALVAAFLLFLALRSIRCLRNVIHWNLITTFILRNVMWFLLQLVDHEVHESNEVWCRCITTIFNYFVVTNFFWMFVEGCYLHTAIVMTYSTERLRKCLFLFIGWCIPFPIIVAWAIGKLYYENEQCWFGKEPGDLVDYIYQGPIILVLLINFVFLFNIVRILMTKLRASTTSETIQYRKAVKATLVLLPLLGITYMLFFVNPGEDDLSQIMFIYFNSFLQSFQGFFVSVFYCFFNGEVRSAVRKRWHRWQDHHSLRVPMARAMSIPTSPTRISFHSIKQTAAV
T4 sequence (P24387 whole entry): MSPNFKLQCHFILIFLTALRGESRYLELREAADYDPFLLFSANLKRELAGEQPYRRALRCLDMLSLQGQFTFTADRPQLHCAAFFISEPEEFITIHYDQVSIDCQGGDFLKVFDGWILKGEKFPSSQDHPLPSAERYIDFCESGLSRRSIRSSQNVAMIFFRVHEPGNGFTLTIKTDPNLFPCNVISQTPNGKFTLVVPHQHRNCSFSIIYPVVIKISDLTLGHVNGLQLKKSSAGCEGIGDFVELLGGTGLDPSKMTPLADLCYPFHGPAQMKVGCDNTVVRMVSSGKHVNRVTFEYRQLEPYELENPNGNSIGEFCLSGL

[11] = molecular target: T4, Corticotropin-releasing factor receptor 2/Corticotropin-releasing factor-binding protein; experiment: activators of CRF receptor 2 with binding protein – uHTS hits, confirmation (AID 602473); format: functional; conditions: read-out: EC50_Mean

SMILES: O=[N+]([O-])c1ccc2c(c1)C(O)n1nc(-c3ccccc3)nc1S2 (stereo not drawn)
- EC50 [1]: > 120 µM (not active)
- EC50 [2]: > 120 µM (not active)
- EC50 (H4): > 120 µM (not active)

SMILES: Cn1c(SCc2ccccc2F)nnc1-c1cnccn1
- EC50 [1]: 0.166 µM (active)
- EC50 [2]: 35.2 µM (active)
- EC50 (H4): 4.22 µM (active)

SMILES: N#C/C=C1\Sc2ccccc2C(=O)N1CC(=O)N1CCN(S(=O)(=O)c2ccccc2)CC1
- EC50 [1]: 13.2 µM (active)
- EC50 [2]: 16 µM (active)
- EC50 (H4): 46.7 µM (active)

SMILES: CCN1C(=O)C(=C2C=C(C)OC(C)=C2)C(=O)N(CC)C1=S
- EC50 [1]: > 120 µM (not active)
- EC50 [2]: > 120 µM (not active)
- EC50 (H4): > 120 µM (not active)

SMILES: COc1cc(/C=C/c2nnc3c4ccccc4ncn23)cc(OC)c1OC
- EC50 [1]: 8.84 µM (active)
- EC50 [2]: 29.1 µM (active)
- EC50 (H4): > 120 µM (not active)
- IC50 (H9c2): > 79 µM (inactive)

SMILES: CC(=O)c1c(C)c(C)c2n1CCn1c(C)ccc1-2
- IC50 [3]: 29 µM (active)

SMILES: COc1ccc(C2=NCN(c3ccc(C)cc3)C(S)=N2)cc1
- EC50 [1]: 6.32 µM (active)
- EC50 [2]: > 120 µM (not active)
- EC50 (H4): 7.4 µM (active)

SMILES: COc1ccc(-c2nn(-c3ccccc3)cc2/C=C/C(=O)NCCCn2ccnc2)cc1OC
- EC50 [4]: > 120 µM (not active)
- EC50 [5]: > 60 µM (not active)
- EC50 [6]: > 120 µM (not active)

SMILES: Cc1c(Cl)cccc1N=C(S)N(Cc1cccs1)C1CCCC1
- EC50 [4]: > 120 µM (not active)
- EC50 [5]: > 120 µM (not active)
- EC50 [6]: > 120 µM (not active)

SMILES: C=CCNC(=O)CN1CCN(C(c2ccccc2)c2ccccc2)CC1
- IC50 [3]: 168 µM (active)

SMILES: Nc1n[nH]c(N)c1N=Nc1ccc2c(c1)OCO2
- EC50 [7]: > 60 µM (not active)
- EC50 [8]: > 60 µM (not active)
- IC50 [3]: 30.1 µM (active)

SMILES: CCn1c(C)nc2cc(C(=O)N/N=C/c3ccc(O)cc3)ccc21
- IC50 [3]: 66.7 µM (active)

SMILES: CCCCCSc1nc(N2CCOCC2)c2c(c1C#N)CC(C)(C)OC2
- EC50 [4]: 19.8 µM (active)
- EC50 [5]: > 120 µM (not active)
- EC50 [6]: > 120 µM (not active)

SMILES: Cc1nc2ccc(NC(=O)CCC3CCCC3)cc2s1
- EC50 [1]: 10.7 µM (active)
- EC50 [2]: 28.8 µM (active)
- EC50 (H4): 15.2 µM (active)

SMILES: COc1nc(N/N=C/c2ccc(-c3ccccc3[N+](=O)[O-])o2)nc(N2CCOCC2)n1
- EC50 [1]: 12.4 µM (active)
- EC50 [2]: 22.5 µM (active)
- EC50 (H4): 24.7 µM (active)
- AC50 [9]: 16 µM (active)
- EC50 (Protein RecA): 14.4 µM (active)

SMILES: O=C(c1cn(-c2ccc(Cl)c(Cl)c2)nn1)C1CC1
- EC50 [1]: 7.57 µM (active)
- EC50 [2]: 10.6 µM (active)
- EC50 (H4): > 60 µM (not active)

SMILES: CCOc1cc(C=NNC(=O)c2cccc(S(=O)(=O)N3CCCC3)c2)ccc1O
- IC50 [3]: 32.3 µM (active)

SMILES: COc1ccc(NC(=O)c2ccc(-c3csc(C)n3)cc2)cc1
- EC50 [1]: 3.97 µM (active)
- EC50 [2]: 1.24 µM (active)
- EC50 (H4): > 120 µM (not active)

SMILES: Cn1c(C(=O)NC2CCCCC2)cc2c(=O)n3ccccc3nc21
- EC50 [1]: > 120 µM (not active)
- EC50 [2]: 8.85 µM (active)
- EC50 (H4): 29.3 µM (active)

SMILES: Cc1ccc(NC(=O)CN(C)CC(=O)Nc2ccc(F)c(F)c2F)c(Cl)c1
- EC50 [4]: > 120 µM (not active)
- EC50 [5]: > 120 µM (not active)
- EC50 [6]: > 120 µM (not active)

SMILES: CCn1ncc(C(=O)Nc2cccc(Cl)c2)c1C
- EC50 [1]: 0.244 µM (active)
- EC50 [2]: 5.61 µM (active)
- EC50 (H4): 109 µM (active)

SMILES: CCSc1nc2ccccc2n1CC(=O)N1CCCCC1
- IC50 [10]: > 47.1 µM (inactive)
- EC50 [11]: > 53 µM (inactive)

SMILES: COC(=O)c1c(NC(=O)CCNCc2ccco2)sc2c1CCC2
- IC50 [3]: 138 µM (active)

SMILES: CCOc1ccc2c(c1)=C(NN1C(=O)c3ccccc3C1=O)C(=O)N=2
- IC50 [10]: > 47.1 µM (inactive)
- EC50 [11]: > 53 µM (inactive)
